Measurements published in paper PMC4685510, “A Cell Biologist’s Field Guide to Aurora Kinase Inhibitors” (Frontiers in Oncology, 2015).

Assays:
[1] = target: T1, 363 human kinases (including Aurora A/B/C) (Homo sapiens, UniProt Q9UQB9); experiment: biochemical; assay type: biochemical; settings: Aurora C, [ATP] 30 µM
T1 sequence (Q9UQB9 1-309): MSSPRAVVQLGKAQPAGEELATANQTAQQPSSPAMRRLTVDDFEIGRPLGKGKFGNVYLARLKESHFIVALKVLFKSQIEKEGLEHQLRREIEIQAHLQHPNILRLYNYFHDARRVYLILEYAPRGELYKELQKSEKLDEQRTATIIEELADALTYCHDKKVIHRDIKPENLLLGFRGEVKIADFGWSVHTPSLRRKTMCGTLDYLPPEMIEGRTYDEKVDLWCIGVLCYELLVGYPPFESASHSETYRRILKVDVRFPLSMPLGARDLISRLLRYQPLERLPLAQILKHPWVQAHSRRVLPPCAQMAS
Text: (§1) However, the Aurora A/B selectivity ratios derived from our in vitro and in vivo data can be compared to prioritize inhibitors.

RPE1 cells = experiment: Cytokinesis assay (live imaging, YFP-α-tubulin; H2B-RFP), RPE1; assay type: cell-based; settings: Homo sapiens, RPE-1; RPE1; cytokinesis failure; read-out: Cytokinesis IC50
Aurora A-TPX2 = settings: ref 61; read-out: Aurora A-TPX2 Ki (Published); cited from earlier work
[2] = target: 363 human kinases (including Aurora A/B/C) (Homo sapiens, UniProt P00519); experiment: biochemical; assay type: biochemical; settings: ABL1, [ATP] 40 µM
Text: as §1

[3] = target: T2, 363 human kinases (including Aurora A/B/C) (Homo sapiens, UniProt P36888); experiment: biochemical; assay type: biochemical; settings: FLT3, [ATP] 50 µM
T2 sequence (P36888 27-993): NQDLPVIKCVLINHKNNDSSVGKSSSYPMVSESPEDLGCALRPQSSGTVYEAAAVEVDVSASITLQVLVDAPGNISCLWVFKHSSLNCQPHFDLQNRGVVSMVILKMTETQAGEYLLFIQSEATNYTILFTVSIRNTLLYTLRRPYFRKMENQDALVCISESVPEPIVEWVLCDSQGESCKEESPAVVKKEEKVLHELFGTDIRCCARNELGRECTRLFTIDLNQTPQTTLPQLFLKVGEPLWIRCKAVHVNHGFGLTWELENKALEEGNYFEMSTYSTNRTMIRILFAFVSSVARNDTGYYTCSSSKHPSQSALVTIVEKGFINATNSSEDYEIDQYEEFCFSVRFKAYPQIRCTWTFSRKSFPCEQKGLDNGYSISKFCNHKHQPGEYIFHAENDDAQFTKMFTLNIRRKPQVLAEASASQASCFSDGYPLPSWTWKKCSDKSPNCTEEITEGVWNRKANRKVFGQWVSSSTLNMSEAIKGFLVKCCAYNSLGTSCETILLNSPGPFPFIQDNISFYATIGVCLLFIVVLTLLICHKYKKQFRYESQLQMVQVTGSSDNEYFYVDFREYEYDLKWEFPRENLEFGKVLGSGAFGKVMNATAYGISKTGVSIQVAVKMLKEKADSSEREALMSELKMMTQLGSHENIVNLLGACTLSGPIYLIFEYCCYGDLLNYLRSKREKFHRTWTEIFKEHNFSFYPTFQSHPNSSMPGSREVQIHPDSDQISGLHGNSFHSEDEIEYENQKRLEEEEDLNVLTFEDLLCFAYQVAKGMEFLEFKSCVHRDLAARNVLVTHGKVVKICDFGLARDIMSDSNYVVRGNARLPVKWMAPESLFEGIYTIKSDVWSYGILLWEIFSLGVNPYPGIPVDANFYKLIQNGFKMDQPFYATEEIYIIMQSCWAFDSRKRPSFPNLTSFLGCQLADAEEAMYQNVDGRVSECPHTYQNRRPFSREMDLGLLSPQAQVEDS
Text: as §1

[4] = target: 363 human kinases (including Aurora A/B/C) (Homo sapiens, UniProt P48730); experiment: biochemical; assay type: biochemical; settings: CK1d, [ATP] 20 µM
Text: as §1

[5] = target: T3, 363 human kinases (including Aurora A/B/C) (Homo sapiens, UniProt Q15831); experiment: biochemical; assay type: biochemical; settings: LKB1
T3 sequence (Q15831 1-433): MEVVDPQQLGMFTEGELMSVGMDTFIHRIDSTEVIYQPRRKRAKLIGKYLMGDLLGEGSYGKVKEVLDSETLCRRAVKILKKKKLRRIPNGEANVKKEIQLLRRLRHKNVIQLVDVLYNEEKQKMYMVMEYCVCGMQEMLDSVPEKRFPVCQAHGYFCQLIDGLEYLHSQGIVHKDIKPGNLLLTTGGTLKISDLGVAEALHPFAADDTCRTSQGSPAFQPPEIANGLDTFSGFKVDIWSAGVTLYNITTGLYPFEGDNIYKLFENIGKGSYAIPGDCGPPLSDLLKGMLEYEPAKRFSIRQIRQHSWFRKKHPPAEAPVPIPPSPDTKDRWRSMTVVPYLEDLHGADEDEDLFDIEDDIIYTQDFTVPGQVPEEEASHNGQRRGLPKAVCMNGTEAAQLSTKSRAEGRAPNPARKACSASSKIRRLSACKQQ
Text: as §1

Aurora A = settings: ref 57; read-out: Aurora A IC50 (Published); cited from earlier work
Aurora A/TPX2^1–43 = target: T4, Aurora A/TPX2^1–43 (Homo sapiens, UniProt O14965); experiment: Aurora A/TPX2^1–43 kinase assay (ADP-Glo)
T4 sequence (O14965 1-403): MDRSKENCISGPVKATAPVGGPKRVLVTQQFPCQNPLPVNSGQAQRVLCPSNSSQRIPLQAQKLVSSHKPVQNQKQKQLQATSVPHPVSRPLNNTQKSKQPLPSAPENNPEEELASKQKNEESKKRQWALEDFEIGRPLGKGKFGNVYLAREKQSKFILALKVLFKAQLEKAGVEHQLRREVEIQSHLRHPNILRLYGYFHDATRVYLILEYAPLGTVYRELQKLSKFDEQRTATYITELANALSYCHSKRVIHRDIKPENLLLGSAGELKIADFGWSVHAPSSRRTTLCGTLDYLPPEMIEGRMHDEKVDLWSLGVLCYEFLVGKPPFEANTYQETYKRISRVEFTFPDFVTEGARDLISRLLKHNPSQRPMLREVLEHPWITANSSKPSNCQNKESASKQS
T4 sequence (Q9ULW0 1-43 partner limits assumed): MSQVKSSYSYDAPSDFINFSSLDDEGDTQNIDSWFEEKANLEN

[6] = test system: HeLa, RPE1, and U2OS cells; experiment: Cellular proliferation analysis (ATPLite, 24 h); settings: HeLa, RPE1, U2OS; 24 h (Figure 4D, Figure S2B)
[7] = 100 nM, read-out: % Enzyme Activity (relative to DMSO controls)
[8] = 500 nM, read-out: % Enzyme Activity (relative to DMSO controls)

363 human kinases (including Aurora A/B/C) (Homo sapiens, UniProt P48730), sequence (P48730 whole entry): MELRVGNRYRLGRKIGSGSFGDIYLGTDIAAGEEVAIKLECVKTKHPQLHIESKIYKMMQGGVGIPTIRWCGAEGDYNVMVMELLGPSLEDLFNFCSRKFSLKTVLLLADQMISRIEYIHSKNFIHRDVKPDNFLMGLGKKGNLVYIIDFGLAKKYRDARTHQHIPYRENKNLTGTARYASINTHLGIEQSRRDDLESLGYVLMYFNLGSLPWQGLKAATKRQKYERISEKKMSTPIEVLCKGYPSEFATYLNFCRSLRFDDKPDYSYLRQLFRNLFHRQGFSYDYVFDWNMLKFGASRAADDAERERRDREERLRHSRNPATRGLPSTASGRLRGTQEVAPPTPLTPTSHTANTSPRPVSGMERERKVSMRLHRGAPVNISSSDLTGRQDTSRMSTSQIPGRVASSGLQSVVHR
363 human kinases (including Aurora A/B/C) (Homo sapiens, UniProt P00519), sequence (P00519 whole entry): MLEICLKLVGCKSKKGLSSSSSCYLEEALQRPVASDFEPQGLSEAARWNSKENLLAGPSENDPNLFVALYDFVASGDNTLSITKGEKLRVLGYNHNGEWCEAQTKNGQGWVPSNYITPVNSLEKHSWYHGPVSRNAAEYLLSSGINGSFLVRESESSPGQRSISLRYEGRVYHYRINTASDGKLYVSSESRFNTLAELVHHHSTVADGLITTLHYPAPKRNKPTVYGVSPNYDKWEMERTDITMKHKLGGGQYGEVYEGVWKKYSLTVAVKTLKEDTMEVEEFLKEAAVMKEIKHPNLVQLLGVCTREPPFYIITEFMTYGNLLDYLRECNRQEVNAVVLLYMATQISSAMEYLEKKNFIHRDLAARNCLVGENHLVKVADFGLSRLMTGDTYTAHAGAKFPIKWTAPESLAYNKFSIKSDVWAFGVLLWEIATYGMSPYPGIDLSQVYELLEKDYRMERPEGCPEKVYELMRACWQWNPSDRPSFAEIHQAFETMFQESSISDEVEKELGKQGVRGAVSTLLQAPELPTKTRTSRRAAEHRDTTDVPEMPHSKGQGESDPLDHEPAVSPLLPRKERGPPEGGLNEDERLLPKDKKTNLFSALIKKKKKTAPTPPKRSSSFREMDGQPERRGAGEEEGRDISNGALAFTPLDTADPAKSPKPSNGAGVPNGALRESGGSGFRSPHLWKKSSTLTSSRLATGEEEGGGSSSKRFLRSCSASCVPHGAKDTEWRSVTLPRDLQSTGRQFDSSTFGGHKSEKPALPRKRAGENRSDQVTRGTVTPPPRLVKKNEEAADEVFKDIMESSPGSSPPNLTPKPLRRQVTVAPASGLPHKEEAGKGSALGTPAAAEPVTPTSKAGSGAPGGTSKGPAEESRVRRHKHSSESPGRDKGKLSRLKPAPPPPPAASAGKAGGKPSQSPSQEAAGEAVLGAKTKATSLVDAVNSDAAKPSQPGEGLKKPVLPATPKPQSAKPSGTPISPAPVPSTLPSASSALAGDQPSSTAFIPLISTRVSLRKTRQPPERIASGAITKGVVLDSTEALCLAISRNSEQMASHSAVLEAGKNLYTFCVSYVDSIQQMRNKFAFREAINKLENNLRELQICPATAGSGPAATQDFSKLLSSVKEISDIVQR

For CCn1cc(-c2ccnc3[nH]c(-c4cccc(CN(C)C)c4)cc23)c(-c2ccc(NC(=O)N(C)C)cc2)n1 [GSK1070916], the remaining activity at 0.1 µM [1, 7] is given as 39.7%, the IC50 (RPE1 cells) is given as 21 nM and the Ki (Aurora A-TPX2) is given as 492 nM.
O=C(O)[C@]1(Cc2cccc(Nc3nccs3)n2)CC[C@@H](Oc2cccc(Cl)c2F)CC1 [MK-5108] showed a remaining activity at 0.1 µM [2, 7] of 15.6%, a remaining activity at 0.5 µM [2, 8] of 1.92% and a remaining activity at 0.1 µM [3, 7] of 58.2%. The remaining activity at 0.5 µM [3, 8] was 30.9%, the remaining activity at 0.1 µM [4, 7] was 100% and the remaining activity at 0.5 µM [4, 8] was 86.8%. It also gave a remaining activity at 0.1 µM [5, 7] of 76.6% and a remaining activity at 0.5 µM [5, 8] of 47.4%.
For O=C(c1cccc(Cl)c1F)N1CCN(Cc2cccc(Nc3nccs3)n2)CC1 [MK-8745], the “% Enzyme Activity (relative to DMSO controls)” value ([2]; 500 nM) was 76.80%, the remaining activity at 0.5 µM [2, 8] was 77.7% and the “% Enzyme Activity (relative to DMSO controls)” value ([3]; 500 nM) was 88.10%. The remaining activity at 0.5 µM [3, 8] was 88.4%, the “% Enzyme Activity (relative to DMSO controls)” value ([4]; 500 nM) was 85.06% and the remaining activity at 0.5 µM [4, 8] was 85.5%. For the same compound, the “% Enzyme Activity (relative to DMSO controls)” value ([5]; 500 nM) was 25.85%, the remaining activity at 0.5 µM [5, 8] was 26.1% and the “% Enzyme Activity (relative to DMSO controls)” value ([1]; 500 nM) was 46.69%. For the same compound, the remaining activity at 0.5 µM [1, 8] was 47.4%, the IC50 (Aurora A) was 0.6 nM and the IC50 (Aurora A/TPX2^1–43) was 0.83 nM. The Ki (Aurora A/TPX2^1–43; Aurora A TPX2^1-43 Ki (example dataset, Figure 2D), calculated from the example IC50) was 0.36 nM, the Ki (Aurora A/TPX2^1–43; Aurora A-TPX2^1–43 Ki Mean ± SD, [ATP] = Km(ATP) (3 μM), 40 nM TPX2^1–43) was 0.41 ± 0.06 nM and the “Selectivity ratio Aur A-TPX2^1–43 versus Aur B-INCENP^783–918” value (Aurora A/TPX2^1–43; fold difference in potency calculated by dividing Ki values) was 162 fold. The “Toxicity / cytotoxicity (cellular proliferation)” value [6] was “not cytotoxic”.
